Results from publication PMC6264278, “Corydaline Inhibits Multiple Cytochrome P450 and UDP-Glucuronosyltransferase Enzyme Activities in Human Liver Microsomes” (Molecules, 2011).

What was measured:
CYP3A = test: Time- and concentration-dependent inactivation of CYP3A-mediated midazolam hydroxylation in human liver microsomes; assay type: in vitro ADME; settings: probe midazolam (1'-hydroxylation), estimated from kobs vs corydaline concentration (10-150 μM)
Method: The inhibitory effects of corydaline toward seven major human CYP isoforms and four major human UGT isoforms were evaluated using cocktail CYP probe substrates and each UGT probe substrate in human liver microsomes, respectively. […] To determine whether midazolam metabolism is inhibited by corydaline, we performed time- and concentration-dependent inactivation assays in human liver microsomes. […] Values for kobs were plotted against corydaline concentration and used for estimation of maximal rates (kinact) and Ki values in human liver microsomes (Figure 2b).

UGT1A1 = molecular target: T1, UGT1A1 (Homo sapiens, UniProt P22309); test: UGT1A1 17β-estradiol 3-glucuronidation inhibition in pooled human liver microsomes; assay type: in vitro ADME
T1 construct: using pooled human liver microsomes; tissue BD Gentest Co. H161; host or cells: pooled human liver microsomes
T1 sequence (P22309 26-533): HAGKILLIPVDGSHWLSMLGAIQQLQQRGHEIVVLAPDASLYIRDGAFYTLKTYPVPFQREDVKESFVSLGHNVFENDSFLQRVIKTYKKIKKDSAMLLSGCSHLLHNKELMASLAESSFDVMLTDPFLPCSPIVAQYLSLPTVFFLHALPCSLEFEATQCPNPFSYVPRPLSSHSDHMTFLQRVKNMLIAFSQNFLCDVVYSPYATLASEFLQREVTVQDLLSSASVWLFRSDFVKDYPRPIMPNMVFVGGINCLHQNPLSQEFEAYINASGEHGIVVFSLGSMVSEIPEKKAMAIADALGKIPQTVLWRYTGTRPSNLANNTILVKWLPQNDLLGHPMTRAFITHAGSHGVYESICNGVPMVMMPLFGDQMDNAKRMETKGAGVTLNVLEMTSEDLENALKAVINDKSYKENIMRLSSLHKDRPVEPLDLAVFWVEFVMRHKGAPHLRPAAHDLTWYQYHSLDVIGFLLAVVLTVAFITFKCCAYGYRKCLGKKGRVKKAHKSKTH
Method: The inhibitory potencies (IC50 values) of corydaline were also determined with UGT assays in the presence and absence of corydaline (final concentrations of 1–1,000 μM with acetonitrile concentration less than 0.5% v/v) using pooled human liver microsomes. 17β-Estradiol 3-glucuronidation, trifluoperazine glucuronidation, propofol glucuronidation, and azidothymidine glucuronidation activities were determined as probe activities for UGT1A1, UGT1A4, UGT1A9, and UGT2B7, respectively, using LC/MS/MS. Incubation mixtures were prepared in a total volume of 100 μL, as follows: Pooled human liver microsomes (0.2 mg/mL for 17β-estradiol, trifluoperazine and azidothymidine; 0.1 mg/mL for propofol), 2 mM UDPGA, 25 μg/mL alamethicin, 10 mM MgCl2, 50 mM tris buffer (pH 7.4), UGT-isoform specific probe substrate (20 μM 17β-estradiol for UGT1A1, 5 μM trifluoperazine for UGT1A4, 10 μM propofol for UGT1A9, or 100 μM azidothymidine for UGT2B7), and various concentrations of corydaline (1−1000 μM). Reactions were initiated by addition of UDPGA, and incubations were carried out at 37 °C in a shaking water bath for 30 min. […]
Glucuronides produced from UGT isoform-specific substrates were respectively determined by LC/MS/MS. […] Quantification was performed by SRM of the [M+H]^+ ion for trifluoperazine glucuronide and azidothymidine glucuronide or [M−H]^− for 17β-estradiol 3-glucuronide and propofol glucuronide and the related product ion for each metabolite.
Reactions were initiated by addition of NADPH at 37 °C and stopped after 15 min by placement of the incubation tubes on ice and addition of ice-cold methanol (100 μL) containing an internal standard (2.0 μg/mL ^13C6-4-hydroxydiclofenac for diclofenac, 0.5 μg/mL d3-4-hydroxymephenytoin for mephenytoin, or 0.5 μg/mL d9-1-hydroxy-bufuralol for bufuralol). The incubation mixtures were centrifuged at 13,000 × g for 5 min, and aliquots (5 μL) of the supernatants were analyzed by LC/MS/MS. […] Aliquots (5 μL) were analyzed by LC/MS/MS. […]

COc1cc2c(cc1OC)C1C(C)c3ccc(OC)c(OC)c3CN1CC2 (centres unmarked) [Corydaline, 2,3,9,10-tetramethoxy-13-methyl-5,8,13,13a-tetrahydro-6H-isoquino[3,2-a]isoquinoline]
KI (inactivation) (CYP3A; read-out: apparent Ki of inactivation, CYP3A midazolam hydroxylation): 30 µM | kinact (CYP3A; read-out: maximal rate of inactivation (kinact), CYP3A midazolam hydroxylation (converted)): 0.00107 s⁻¹ | Ki (UGT1A1; human liver microsomes, 10-80 μM 17β-estradiol, mixed competitive-noncompetitive equation): 57.6 ± 13 µM | α (mix of competitive and noncompetitive mechanisms), UGT1A1 17β-estradiol 3-glucuronidation (UGT1A1; mixed competitive-noncompetitive equation, nonlinear regression): 0.555 | IC50 (UGT1A1; pooled human liver microsomes (H161), 20 μM 17β-estradiol, mean ± SD, n = 3): 137 ± 16.2 µM
